From patent US12325710B2, “Substituted 1,2,3,4,5,6-hexahydroazepino[4,5-b]indoles for treating brain disorders” (priority 2019, dated 2025)
“Also recorded” adds a separate entry of the source.

Columns and labels:
mouse 5-HT2A receptors = mouse 5-HT2A receptors (Mus musculus, UniProt P35363); test: 5-HT2A Gq-mediated calcium flux functional assay (mouse); assay type: cell-based
Procedure: (§1) Serotonin and Opioid Receptor Functional Assays. Functional assay screens at 5-HT and opioid receptors were performed in parallel using the same compound dilutions and 384-well format high-throughput assay platforms. Assays assessed activity at all human isoforms of the receptors, except where noted for the mouse 5-HT2A receptor. Receptor constructs in pcDNA vectors were generated from the Presto-Tango GPCR library with minor modifications. All compounds were serially diluted in drug buffer (HBSS, 20 mM HEPES, pH 7.4 supplemented with 0.1% bovine serum albumin and 0.01% ascorbic acid) and dispensed into 384-well assay plates using a FLIPR^TETRA (Molecular Devices). Every plate included a positive control such as 5-HT (for all 5-HT receptors), DADLE (DOR), salvinorin A (KOR), and DAMGO (MOR). For measurements of 5-HT2A, 5-HT2B, and 5-HT2C Gq-mediated calcium flux function, HEK Flp-In 293 T-Rex stable cell lines (Invitrogen) were loaded with Fluo-4 dye for one hour, stimulated with compounds and read for baseline (0-10 seconds) and peak fold-over-basal fluorescence (5 minutes) at 25° C. on the FLIPR^TETRA. For measurement of 5-HT6 and 5-HT7a functional assays, Gs-mediated cAMP accumulation was detected using the split-luciferase GloSensor assay in HEKT cells measuring luminescence on a Microbeta Trilux (Perkin Elmer) with a 15 min drug incubation at 25° C. […]

C57/BL6J mice = test: Forced swim test (FST); assay type: in vivo, mouse; details: 24 h after drug administration; TBG 50 mg/kg, ketamine 3 mg/kg i.p.
Procedure: Forced Swim Test (FST). Male C57/BL6J mice (9-10 weeks old at time of experiment, n=10 per condition) were obtained from the Jackson Lab and housed 4-5 mice/cage in a UCD vivarium following an IACUC approved protocol. After 1 week in the vivarium each mouse was handled for approximately 1 minute by a experimenter for 3 consecutive days leading up to the first FST. All experiments were carried out by the same experimenter who performed handling. During the FST, mice underwent a 6 min swim session in a clear Plexiglas cylinder 40 cm tall, 20 cm in diameter, and filled with 30 cm of 24±1° C. water. Fresh water was used for every mouse. After handling and habituation to the experimenter, drug-naïve mice first underwent a pretest swim to more reliably induce a depressive phenotype in the subsequent FST sessions. Immobility scores for all mice were determined after the pre-test and mice were randomly assigned to treatment groups to generate groups with similar average immobility scores to be used for the following two FST sessions. […] Experiments were video-recorded and manually scored offline. Immobility time—defined as passive floating or remaining motionless with no activity other than that needed to keep the mouse's head above water—was scored for the last 4 min of the 6 min trial.

[1] = tested on: mouse primary sensory cortex; test: In vivo spine dynamics, transcranial 2-photon imaging; details: 24 h after i.p. dose; TBG 50 mg/kg, DOI 10 mg/kg
Procedure: In Vivo Spine Dynamics. Male and female Thy1-GFP-M line mice (n=5 per condition) were purchased from The Jackson Laboratory (JAX #007788) and maintained in UCSC animal facilities according to an IACUC approved protocol. In vivo transcranial two-photon imaging and data analysis were performed as previously described. Briefly, mice were anesthetized with an intraperitoneal (i.p.) injection of a mixture of ketamine (87 mg/kg) and xylazine (8.7 mg/kg). A small region of the exposed skull was manually thinned down to 20-30 μm for optical access. Spines on apical dendrites in mouse primary sensory cortices were imaged using a Bruker Ultima IV two-photon microscope equipped with an Olympus water-immersion objective (40×, NA=0.8) and a Ti:Sapphire laser (Spectra-Physics Mai-Tai, excitation wavelength 920 nm). Images were taken at a zoom of 4.0 (pixel size 0.143×0.143 μm) and Z-step size of 0.7 μm. The mice received an i.p. injection (injection volume=5 mL/kg) of DOI (10 mg/kg) or TBG (50 mg/kg) immediately after they recovered from anesthesia given prior to the first imaging session. The animals were re-imaged 24 h after drug administration. Dendritic spine dynamics were analyzed using ImageJ. Spine formation and elimination were quantified as percentages of spine number on day 0.

larval zebrafish = test: Heart rate and arrhythmia in immobilized larval zebrafish
5-HT1A = target: T1, 5-HT1A (Homo sapiens, UniProt P08908); test: 5-HT1A functional assay (Gi/o-mediated cAMP inhibition); assay type: cell-based
T1 construct: expressed in transfected cells; host or cells: HEKT cells (GloSensor cAMP assay)
T1 sequence (P08908 1-422): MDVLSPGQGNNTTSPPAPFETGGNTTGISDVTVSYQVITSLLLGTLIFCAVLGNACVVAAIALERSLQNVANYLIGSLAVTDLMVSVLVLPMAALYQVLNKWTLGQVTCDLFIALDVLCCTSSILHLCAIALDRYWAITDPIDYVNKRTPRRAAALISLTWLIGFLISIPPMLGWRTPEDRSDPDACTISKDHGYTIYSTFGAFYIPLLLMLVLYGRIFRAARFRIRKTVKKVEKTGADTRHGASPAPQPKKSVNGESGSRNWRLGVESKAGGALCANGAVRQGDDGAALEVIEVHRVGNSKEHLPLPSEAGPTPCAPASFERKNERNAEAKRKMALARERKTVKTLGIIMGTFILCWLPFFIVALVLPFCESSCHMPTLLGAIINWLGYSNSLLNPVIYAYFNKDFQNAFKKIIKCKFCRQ
Procedure: as §1

[2] = tested on: larval zebrafish expressing GCaMP5; test: Seizurogenic potential in larval zebrafish expressing GCaMP5; assay type: in vivo; details: 200 μM; PTZ positive control
Procedure: Transgenic larval zebrafish expressing GCaMP5G were immobilized in agarose, treated with compounds, and imaged over time. The known seizure-inducing compound PTZ was used as a positive control. All compounds were treated at 200 μM (n=2 per condition).

Sequence of mouse 5-HT2A receptors (P35363 whole entry, canonical isoform): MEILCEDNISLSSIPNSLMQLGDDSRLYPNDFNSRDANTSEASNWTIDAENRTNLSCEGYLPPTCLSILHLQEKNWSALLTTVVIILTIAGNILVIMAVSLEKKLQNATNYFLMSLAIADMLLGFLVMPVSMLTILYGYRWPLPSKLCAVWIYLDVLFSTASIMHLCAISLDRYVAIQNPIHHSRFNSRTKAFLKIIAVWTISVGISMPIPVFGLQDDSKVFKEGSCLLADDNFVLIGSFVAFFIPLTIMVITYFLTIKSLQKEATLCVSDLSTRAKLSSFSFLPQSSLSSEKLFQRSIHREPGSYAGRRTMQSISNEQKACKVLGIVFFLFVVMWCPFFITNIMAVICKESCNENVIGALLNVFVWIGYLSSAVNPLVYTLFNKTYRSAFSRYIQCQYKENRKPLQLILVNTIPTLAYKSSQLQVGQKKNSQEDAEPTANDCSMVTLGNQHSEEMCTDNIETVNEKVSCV

For `COc1ccc2c3c([nH]c2c1)CCN(C)CC3` [TBG], the “agonist activity at mouse 5-HT2A receptors” value (mouse 5-HT2A receptors) was “potent agonist activity”, the “immobility in FST” value (C57/BL6J mice) was “antidepressant-like effects; also recorded: significantly reduced immobility” and the spine elimination [1] was “no effect on spine elimination; also recorded: Neither TBG nor DOI affected spine elimination”. The spine formation [1] was “increased spine formation”, the “heart rate (bradycardia)” value (larval zebrafish) was “Neither IBG nor TBG induced these undesirable phenotypes; also recorded: do not induce bradycardia” and the “likelihood of arrhythmias (ratio of atrium to ventricle BPM)” value (larval zebrafish) was “Neither IBG nor TBG induced these undesirable phenotypes”. For the same molecule, the “5-HT1A agonist activity compared to 5-MeO-DMT” value (5-HT1A) was “weaker 5-HT1A and 5-HT2C agonist activity” and the “seizure induction (neural activity)” value [2] was “Neither ibogaine nor TBG produced excessive neural activity; also recorded: does not induce seizures”.
